Non-standard residues stand in square brackets, D forms with d. Residues, ends and D or L forms follow the SMILES beside them. dNMeW = CN[C@H](Cc1c[nH]c2ccccc12)C(=O)O; dNMeS = CN[C@H](CO)C(=O)O; Orn = NCCC[C@H](N)C(=O)O
How the values were obtained:
[1] = system: human plasma HDL; experiment: human plasma HDL remodeling (NDGGE, immunoblot for human apoA-I); assay type: biochemical; conditions: human plasma in vitro; Western blot for apoA-I; FIGS. 1 and 2a
From the text: As an initial phase of investigation, we evaluated in vitro the effectiveness of our cyclic D,L-α-peptides to remodel mature human plasma HDLs into lipid-poor HDL (FIG. 1 and FIG. 2a). Lipid-poor HDL particles are key acceptors of cholesterol in reverse cholesterol transport and are thus crucial for combating atherosclerosis. In fact, with respect to the cholesterol efflux capacity of human sera, the levels of lipid-poor HDL correlate much better than the levels of HDL-cholesterol or apoA-I. Briefly, our assay involved incubating human plasma with a peptide, after which the plasma sample was subjected to non-denaturing gradient gel electrophoresis (NDGGE) to separate the HDL subspecies and then immunoblotted for human apoA-I. The ranked activities of the cyclic D,L-α-peptides in promoting formation of lipid-poor HDL are shown in FIG. 1. It should be noted that there are inherent variabilities associated with electrophoretic transfer, staining, and densitometric quantitation, so the peptide ranking should be viewed as an approximate guide to relative plasma HDL remodeling efficacy. Nevertheless, the rankings were similar overall whether the panel was assayed by using peptide stock solutions prepared in 10% sucrose/H2O (FIGS. 1 and 2a) or peptide stock solutions prepared in 1:1 DMSO/H2O. From these preliminary structure-activity relationship (SAR) studies, we identified a pronounced sequence dependence for efficient plasma HDL remodeling (vide infra).
Human plasma remodeling: All procedures involving human samples were approved by TSRI Institutional Review Board. Procedures were modified from those reported in Troutt et al., J. Lipid Res. 49, 581-587, 2008. Blood samples from normal healthy human donors were obtained from TSRI Normal Blood Donor Program. EDTA-anticoagulated whole blood was centrifuged at 1500×g for 15 min within 1 h of being drawn from the donor. The plasma layer was aliquoted and used immediately or frozen at −80° C. for future use. Peptide stock solutions were prepared at ˜15 mM peptide in 50% DMSO for initial screenings, or at ˜2 mM peptide in 10% sucrose for remodeling assays at lower concentrations (FIG. 1) and cholesterol efflux assays (FIG. 2). Plasma samples (30 μL) were treated with peptide stocks, and the samples were incubated at 37° C. for 0.5-1 h, and then quenched by adding 270 μL of 50% sucrose (1:9 dilution). Samples were mixed with 6× native loading buffer (125 mM tris, pH 6.8, 0.02% bromophenol, 20% glycerol), of which 6 μL was loaded onto a 4-20% polyacrylamide gel. The molecular weight ladder used was High Molecular Weight Calibration Kit (Amersham Biosciences, #17-0445-01). […] The films were scanned and quantified by densitometry using the program LabWorks (v. 4.0.0.8). […]

[2] = system: mouse macrophage J774 cells; experiment: cholesterol efflux from mouse macrophage cells incubated with peptide-treated human plasma; assay type: cell-based; conditions: for promotion of cellular cholesterol efflux (in words): J774 cells, 2% apoB-depleted peptide-treated human plasma, 4 h, FIG. 2b
Protocol: Selected cyclic D,L-α-peptides were further evaluated for their ability to promote cellular cholesterol efflux from mouse macrophage J774 cells. A main factor for HDL anti-atherogenicity is its role in reverse cholesterol transport, of which cellular cholesterol efflux is a critical component. To measure efflux mediated by the cyclic D,L-α-peptides, cholesterol-laden cells were incubated with peptide-treated plasma for 4 h, after which the level of cholesterol effluxed to the media was measured as described in Sankaranarayanan et al., J. Lipid Res. 52, 2332-2340, 2011.
Preparation of labeling medium: These procedures were modified from that reported in Sankaranarayanan et al., J. Lipid Res. 52, 2332-2340, 2011. The labeling medium was prepared by complexing the unlabeled cholesterol and BODIPY-cholesterol (20% of the total cholesterol) with methyl-β-cyclodextrin (CD) at a molar ratio of 1:40 (total cholesterol/CD). Unlabeled cholesterol and BODIPY-cholesterol were dissolved in chloroform and dried in a round bottom flask by rotor-evaporation in the dark to form a thin film. The cholesterol mixture was solubilized by adding 20 mM CD in MEM-HEPES buffer. The suspension was sonicated in a water bath (37° C.) for at 1 h, stirred at 37° C. for 3 h, filtered using a 0.45-μm syringe filter, and diluted with an equal volume of MEM-HEPES buffer containing 4 μg/mL Sandoz ACAT (acyl-CoA:cholesterol acyltransferase) inhibitor (Sigma). The final concentrations of BODIPY-cholesterol, unlabeled cholesterol, CD, and ACAT inhibitor in the labeling medium were 0.025 mM, 0.1 mM, 10 mM, and […], respectively.
Preparation of efflux medium: Just before the initiation of the efflux assays, the human plasma frozen at −80° C. was thawed, and 80 μL of plasma was incubated with 20 μL of cyclic peptide stocks (peptide stocks were 1-3 mg/mL in 10% sucrose) or the vehicle (10% sucrose) at 37° C. for 30 min. The treated plasma samples (100 μL) were then incubated with 25% PEG 8000 solution in 200 mM glycine buffer, pH 8.5 (40 μL) to precipitate apoB-containing lipoproteins (Asztalos et al., J. Lipid Res. 46, 2246-2253, 2005). After a 15-min incubation, the precipitate was removed by high-speed centrifugation (13,000 rpm, 10 min, 4° C.), and the supernatant (60 μL) was immediately diluted with MEM-HEPES buffer (1.5 mL) to give ˜2% whole plasma. This solution, containing the peptide remodeled-HDL lipoprotein fraction as cholesterol acceptors, was used as the efflux medium.
Cholesterol efflux from mouse macrophage cells: Mouse macrophage J774A.1 cells (TIB-67; American Type Culture Collection, Manassas, Va.) were seeded in 12-well culture plate at 3×10^5 cells/mL and cultured to 80-90% confluency in DMEM with 10% FBS at 5% CO2. Cells were rinsed twice with MEM-HEPES, incubated for 1 h with 0.25 ml of labeling medium containing CD/BODIPY-cholesterol/unlabeled cholesterol and 2 μg/mL Sandoz ACAT inhibitor, followed by washing twice with MEM-HEPES. The cholesterol-laden cells were equilibrated for 18 h in DMEM containing 5% LPDS, […] Sandoz ACAT inhibitor, and 0.3 mM Cpt-cAMP. After equilibration, the cells were washed twice with MEM-HEPES and incubated with 0.25 mL of efflux media for 4 h. At the end of the incubation time, the efflux media was removed and centrifuged (1200 rpm, 10 min) to remove floating cells, and the fluorescence intensity of 100 μL cell-free media was recorded using a Tecan GENios plate reader (excitation 485 nm, emission 535 nm). The obtained signals were background subtracted using the signal from unlabeled cells. The cell monolayers were rinsed twice with ice-cold MEM-HEPES and solubilized with 0.25 mL 1% cholic acid by shaking on a plate shaker for at least 4 h at room temperature; then the fluorescence intensity of 100 μL cell lysate was recorded and background subtracted using the signal from unlabeled cell lysate. […]

[3] = system: HDL in human plasma; experiment: pre-beta HDL ELISA assay: remodeling HDL in human plasma in vitro; assay type: biochemical; conditions: pre-beta HDL ELISA
Protocol: First, various cyclic peptides, including the majority of compounds shown in FIG. 2, were assessed for activities for remodeling HDL in human plasma in vitro. Unlike western blot which was used to generate data shown in FIG. 2, here a pre-beta HDL ELISA assay was used to measure pre-beta HDL levels. Results from the assay are shown in Table 1, which lists the peptides in the order of their activities in remodeling HDL.

## Ac-wLwSeQsO-NH2 (Ac-[dW]L[dW]S[dE]Q[dS][Orn]-NH2) [SEQ ID NO:45, acetylated linear peptide]
[1]
  plasma HDL remodeling to lipid-poor HDL (in words): failed to remodel plasma HDL
[2]
  promotion of cellular cholesterol efflux (in words): failed to remodel plasma HDL or promote cholesterol efflux

## c[wL^MewSeQ^MesO] (cyclo([dW]L[dNMeW]S[dE]Q[dNMeS][Orn])) [SEQ ID NO:14]
[1]
  plasma HDL remodeling to lipid-poor HDL (in words): greatly diminished compared to the unmethylated parent, compound 4
[2]
  promotion of cellular cholesterol efflux (in words): greatly diminished compared to the unmethylated parent, compound 4

## CC(C)C[C@@H]1NC(=O)[C@@H](Cc2c[nH]c3ccccc23)NC(=O)[C@H](CCCN)NC(=O)[C@@H](CO)NC(=O)[C@H](CCC(N)=O)NC(=O)[C@@H](CCC(=O)O)NC(=O)[C@H](CO)NC(=O)[C@@H](Cc2c[nH]c3ccccc23)NC1=O [SEQ ID NO:4, c[wLwSeQsO]] (cyclo([dW]L[dW]S[dE]Q[dS][Orn]))
[2]; J774 cells in the efflux assay
  toxicity based on the cellular morphology and density: did not appear to be toxic
[2]
  promotion of cellular cholesterol efflux (in words): only marginally less effective than the α-helical apoA-I mimetic 4F
[3]
  Pre-beta HDL generated (normalized level): 0.59

## c[wLwErQrE] (cyclo([dW]L[dW]E[dR]Q[dR]E); SMILES CC(C)C[C@@H]1NC(=O)[C@@H](Cc2c[nH]c3ccccc23)NC(=O)[C@H](CCC(=O)O)NC(=O)[C@@H](CCCNC(=N)N)NC(=O)[C@H](CCC(N)=O)NC(=O)[C@@H](CCCNC(=N)N)NC(=O)[C@H](CCC(=O)O)NC(=O)[C@@H](Cc2c[nH]c3ccccc23)NC1=O) [SEQ ID NO:37]
[1]
  plasma HDL remodeling to lipid-poor HDL (in words): dramatically reduced compared to that of compound 1
[2]
  promotion of cellular cholesterol efflux (in words): dramatically reduced compared to that of compound 1

— patent US10092620B2, “Uses of cyclic peptides for treating and preventing atherosclerosis” (THE SCRIPPS RESEARCH INSTITUTE, priority 2013, dated 2018)
